We go through 19 molecules from patent US9073926B2, “Heterocyclic compounds containing a pyrrolopyridine or benzimidazole core” (Boehringer Ingelheim International GmbH, priority 2009, dated 2015).

Chain of Human RSK2 (P51812 whole entry): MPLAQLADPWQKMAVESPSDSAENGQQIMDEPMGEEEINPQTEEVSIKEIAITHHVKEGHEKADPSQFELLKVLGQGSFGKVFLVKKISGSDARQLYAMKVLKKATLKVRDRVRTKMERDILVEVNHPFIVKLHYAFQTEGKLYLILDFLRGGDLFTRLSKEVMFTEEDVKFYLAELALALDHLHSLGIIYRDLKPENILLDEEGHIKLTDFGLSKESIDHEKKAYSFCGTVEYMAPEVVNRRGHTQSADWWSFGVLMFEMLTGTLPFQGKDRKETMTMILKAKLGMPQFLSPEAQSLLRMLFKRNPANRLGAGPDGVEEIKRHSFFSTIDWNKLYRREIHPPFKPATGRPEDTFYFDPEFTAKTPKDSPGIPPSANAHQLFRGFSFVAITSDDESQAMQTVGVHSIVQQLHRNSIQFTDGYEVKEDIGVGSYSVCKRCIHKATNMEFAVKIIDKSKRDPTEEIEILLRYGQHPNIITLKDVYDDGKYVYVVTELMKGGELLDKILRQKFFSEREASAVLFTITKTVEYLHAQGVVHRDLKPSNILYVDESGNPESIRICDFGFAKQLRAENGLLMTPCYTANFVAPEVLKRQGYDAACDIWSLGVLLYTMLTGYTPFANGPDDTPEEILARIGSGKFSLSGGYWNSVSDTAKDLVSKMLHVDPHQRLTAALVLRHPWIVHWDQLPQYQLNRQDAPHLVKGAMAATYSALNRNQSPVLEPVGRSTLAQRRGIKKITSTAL

The first test has as its target Human RSK2 (Homo sapiens (Human), UniProt P51812). Put plainly: Human RSK2 Assay (Kinase Glo Plus, residual ATP). Format: biochemical. The settings on record: 0.75 nM His-RSK2, 0.75 μM ATP, 1.0 μM S6 Kinase/RSK Substrate Peptide 1. The method in brief:
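His-RSK2 (0.75 nM) with 0.75 μM ATP and 1.0 μM S6 kinase/RSK substrate peptide in HEPES pH 7.5 buffer with Mg/Mn, 90 min at 28° C. Residual ATP read by Kinase Glo Plus luminescence; percent of control fitted to a 4-parameter logistic, IC50 taken as inflection point.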
Regarding `CC1CCNC(=O)c2cc3ccc(C(=O)Nc4cc(Cc5ccccc5)on4)nc3n21` (centres unmarked) [Example 94, N-(5-benzyl-1,2-oxazol-3-yl)-10-methyl-6-oxo-7,8,9,10-tetrahydro-6H-pyrido[3′,2′:4,5]pyrrolo[1,2-a][1,4]diazepine-2-carboxamide], the IC50 (as a rule, the concentration needed to halve the response being measured) was 3.3 nM.

Regarding `Cn1cc(NC(=O)c2ccc3cc4n(c3n2)CCCNC4=O)nc1C(=O)NC1CCCC1` [Example 104, N-[2-(cyclopentylcarbamoyl)-1-methyl-1H-imidazol-4-yl]-6-oxo-7,8,9,10-tetrahydro-6H-pyrido[3′,2′:4,5]pyrrolo[1,2-a][1,4]diazepine-2-carboxamide], the concentration for half-maximal inhibition (IC50) was 1.6 nM.

Consider `Cn1c(NC(=O)c2ccc3cc4n(c3n2)CCCNC4=O)nc2ccccc21` [Example 51, N-(1-methyl-1H-benzimidazol-2-yl)-6-oxo-7,8,9,10-tetrahydro-6H-pyrido[3′,2′:4,5]pyrrolo[1,2-a][1,4]diazepine-2-carboxamide], for which the IC50 came to 365 nM. On the same count and under the same terms, for `CC1CCNC(=O)c2cc3ccc(C(=O)Nc4cc(Cc5ccccc5)no4)nc3n21` (centres unmarked) [Example 96, N-(3-benzyl-1,2-oxazol-5-yl)-10-methyl-6-oxo-7,8,9,10-tetrahydro-6H-pyrido[3′,2′:4,5]pyrrolo[1,2-a][1,4]diazepine-2-carboxamide] the value was 13 nM; for `CC(C)n1c(NC(=O)c2ccc3cc4n(c3n2)CCCNC4=O)nc2ccccc21` [Example 53, 6-oxo-N-[1-(propan-2-yl)-1H-benzimidazol-2-yl]-7,8,9,10-tetrahydro-6H-pyrido[3′,2′:4,5]pyrrolo[1,2-a][1,4]diazepine-2-carboxamide], 630 nM. Still for that read-out and setting: for `CCn1c(NC(=O)c2ccc3nc4n(c3c2)CCCNC4=O)nc2ccc(Cl)nc21` [Example 15, N-(5-chloro-3-ethyl-3H-imidazo[4,5-b]pyridin-2-yl)-1-oxo-2,3,4,5-tetrahydro-1H-[1,4]diazepino[1,2-a]benzimidazole-8-carboxamide] the value was 45 nM; for `Cn1cc(NC(=O)c2ccc3nc4n(c3c2)C(C)(C)CCNC4=O)cn1` [Example 14, 5,5-dimethyl-N-(1-methyl-1H-pyrazol-4-yl)-1-oxo-2,3,4,5-tetrahydro-1H-[1,4]diazepino[1,2-a]benzimidazole-8-carboxamide], 4000 nM. Take `O=C(Nc1cccnc1)c1ccc2cc3n(c2n1)CCCNC3=O` [Example 27, 6-oxo-N-(pyridin-3-yl)-7,8,9,10-tetrahydro-6H-pyrido[3′,2′:4,5]pyrrolo[1,2-a][1,4]diazepine-2-carboxamide]: the IC50 was found to be 37 nM. Same read-out and setting: the figure for `CCn1c(NC(=O)c2ccc3cc4n(c3n2)C(C)CCNC4=O)nc2ccccc21` (centres unmarked) [Example 69, N-(1-ethyl-1H-benzimidazol-2-yl)-10-methyl-6-oxo-7,8,9,10-tetrahydro-6H-pyrido[3′,2′:4,5]pyrrolo[1,2-a][1,4]diazepine-2-carboxamide] is 15 nM; for `CC(C)n1c(NC(=O)c2ccc3cc4n(c3n2)CC(C)(C)CNC4=O)nc2ccccc21` [Example 54, 9,9-dimethyl-6-oxo-N-[1-(propan-2-yl)-1H-benzimidazol-2-yl]-7,8,9,10-tetrahydro-6H-pyrido[3′,2′:4,5]pyrrolo[1,2-a][1,4]diazepine-2-carboxamide] it is 1300 nM; for `Cc1cc(NC(=O)c2ccc3cc4n(c3n2)[C@@H](C)[C@@H](C)NC4=O)no1` (relative stereo) [Example 85, Cis-8,9-dimethyl-N-(5-methyl-1,2-oxazol-3-yl)-6-oxo-6,7,8,9-tetrahydropyrido[3′,2′:4,5]pyrrolo[1,2-a]pyrazine-2-carboxamide] it is 2.6 nM. For the molecule `CC1CNC(=O)c2cc3ccc(C(=O)Nc4cccnc4)nc3n21` (centres unmarked) [Example 101, 9-methyl-6-oxo-N-(pyridin-3-yl)-6,7,8,9-tetrahydropyrido[3′,2′:4,5]pyrrolo[1,2-a]pyrazine-2-carboxamide], the IC50 came out at 120 nM.

In the case of `O=C(Nc1cccc(-c2c[nH]cn2)c1)c1ccc2nc3n(c2c1)CCCNC3=O` [Example 22, N-[3-(1H-imidazol-4-yl)phenyl]-1-oxo-2,3,4,5-tetrahydro-1H-[1,4]diazepino[1,2-a]benzimidazole-8-carboxamide], the IC50 turned out to be 1700 nM. The same measure, in the same setting: for `CC(C)n1c(NC(=O)c2ccc3nc4n(c3c2)C(C)(C)CCNC4=O)nc2ccccc21` [Example 18, 5,5-dimethyl-1-oxo-N-[1-(propan-2-yl)-1H-benzimidazol-2-yl]-2,3,4,5-tetrahydro-1H-[1,4]diazepino[1,2-a]benzimidazole-8-carboxamide] the value was 4.7 nM; for `CNC(=O)c1csc(NC(=O)c2ccc3cc4n(c3n2)C(C)CNC4=O)n1` (centres unmarked) [Example 102, 9-methyl-N-[4-(methylcarbamoyl)-1,3-thiazol-2-yl]-6-oxo-6,7,8,9-tetrahydropyrido[3′,2′:4,5]pyrrolo[1,2-a]pyrazine-2-carboxamide], 130 nM. Take `CC(C)n1ncc2cc(NC(=O)c3ccc4cc5n(c4n3)[C@@H](C)CNC5=O)cnc21` [Example 63, (9S)-9-methyl-6-oxo-N-[1-(propan-2-yl)-1H-pyrazolo[3,4-b]pyridin-5-yl]-6,7,8,9-tetrahydropyrido[3′,2′:4,5]pyrrolo[1,2-a]pyrazine-2-carboxamide]: the IC50 was 84 nM. Same read-out and setting: the figure for `Cc1cc(NC(=O)c2ccc3cc4n(c3n2)[C@@H](C)CNC4=O)no1` [Example 83, (9S)-9-methyl-N-(5-methyl-1,2-oxazol-3-yl)-6-oxo-6,7,8,9-tetrahydropyrido[3′,2′:4,5]pyrrolo[1,2-a]pyrazine-2-carboxamide] is 380 nM; for `CC(C)n1ncc2cc(NC(=O)c3ccc4cc5n(c4n3)CCCNC5=O)cnc21` [Example 30, 6-oxo-N-[1-(propan-2-yl)-1H-pyrazolo[3,4-b]pyridin-5-y]-7,8,9,10-tetrahydro-6H-pyrido[3′,2′:4,5]pyrrolo[1,2-a][1,4]diazepine-2-carboxamide] it is 25 nM.

The next test relates to NHE1.
Assay: not given
Conditions: Cuello et al., Mol Pharmacol 71:799-806, 2007; cited from earlier work.
As for `Cc1ccc(-c2c(C(=O)CF)n(CCCO)c3ncnc(N)c23)cc1` [fmk], the “basal NHE1 activity” value is “without affecting basal activity”; the “phosphorylation of NHE1 and phenylephrine-induced enhanced NHE1 activity” value is “inhibit phosphorylation of NHE1”.
